Data: US12351590B2, “Pyrrolopyrimidine compound and use thereof” (GUANGZHOU JOYO PHARMATECH CO., LTD., priority 2019, dated 2025)

Tests used:
[1] = tested on: Caco-2 cells
Procedure: The transport buffer solution was HBSS (Hanks' balanced salt solution) and 10 mM HEPES [N-(2-hydroxyethyl)piperazine-N′-(2-ethanesulfonic acid)], pH 7.40±0.05; Caco-2 cells were purchased from ATCC.
Caco-2 cells were seeded at 1×10^5 cells/cm^2 in polyethylene terephthalate (PET) 96-well BD insert plates, and the medium was refreshed every 4-5 days until day 21-28 to form a confluent monolayer. Test compounds were tested in a two-way format at 2 μM in duplicate. Digoxin was added at 10 μM in the two-way format, and nadolol and metoprolol were added at 2 μM in the two-way format. Final DMSO concentration was adjusted to less than 1%. The plates were incubated in a CO2 incubator at 37±1° C. for 2 h and at 5% CO2 and saturated humidity without shaking. All samples were mixed with acetonitrile containing an internal standard, centrifuged at 4000 rpm for 10 min. 100 microliters of supernatant was diluted with 100 microliters of distilled water for LC/MS/MS analysis. By LC/MS/MS analysis, the concentrations of the test compounds and the reference compound in the initial test compound solution, the test compound solution and the test article solution using the peak area ratio of the analyte to the internal standard. After the transport test, the integrity of the Caco-2 cell monolayer was determined by fluorescein yellow exclusion reaction, and the apparent permeability coefficient and efflux ratio were calculated.

[2] = Pharmacokinetic (PK) study in mice; type: in vivo, mice (C57BL/6); details: male C57BL/6 mice
Procedure: Clear solutions obtained by dissolving the test compounds were administered to male mice (C57BL/6) or rats (SD) by tail vein injection and oral gavage (overnight fasting, 7-8 weeks old). After the administration of the test compounds, plasma was separated from blood collected from the mandibular vein and centrifugation at 0.117, 0.333, 1, 2, 4, 7 and 24 h for the intravenous injection group (1 mg/kg), and at 0.25, 0.5, 1, 2, 4, 8 and 24 h for the oral gavage group (3 mg/kg). The plasma concentration was measured by LC-MS/MS method, and the relevant pharmacokinetic parameters were calculated by WinNonlin™ Version 6.3 pharmacokinetic software using non-compartmental model linear logarithmic trapezoid method.

[3] = biological target: JAK1(h) (Homo sapiens (Human), UniProt P23458); assay: In vitro activity assay of JAK1 kinase (radiometric [γ-33P]-ATP); type: biochemical; details: recombinant human JAK1
JAK1(h), sequence (P23458 whole entry): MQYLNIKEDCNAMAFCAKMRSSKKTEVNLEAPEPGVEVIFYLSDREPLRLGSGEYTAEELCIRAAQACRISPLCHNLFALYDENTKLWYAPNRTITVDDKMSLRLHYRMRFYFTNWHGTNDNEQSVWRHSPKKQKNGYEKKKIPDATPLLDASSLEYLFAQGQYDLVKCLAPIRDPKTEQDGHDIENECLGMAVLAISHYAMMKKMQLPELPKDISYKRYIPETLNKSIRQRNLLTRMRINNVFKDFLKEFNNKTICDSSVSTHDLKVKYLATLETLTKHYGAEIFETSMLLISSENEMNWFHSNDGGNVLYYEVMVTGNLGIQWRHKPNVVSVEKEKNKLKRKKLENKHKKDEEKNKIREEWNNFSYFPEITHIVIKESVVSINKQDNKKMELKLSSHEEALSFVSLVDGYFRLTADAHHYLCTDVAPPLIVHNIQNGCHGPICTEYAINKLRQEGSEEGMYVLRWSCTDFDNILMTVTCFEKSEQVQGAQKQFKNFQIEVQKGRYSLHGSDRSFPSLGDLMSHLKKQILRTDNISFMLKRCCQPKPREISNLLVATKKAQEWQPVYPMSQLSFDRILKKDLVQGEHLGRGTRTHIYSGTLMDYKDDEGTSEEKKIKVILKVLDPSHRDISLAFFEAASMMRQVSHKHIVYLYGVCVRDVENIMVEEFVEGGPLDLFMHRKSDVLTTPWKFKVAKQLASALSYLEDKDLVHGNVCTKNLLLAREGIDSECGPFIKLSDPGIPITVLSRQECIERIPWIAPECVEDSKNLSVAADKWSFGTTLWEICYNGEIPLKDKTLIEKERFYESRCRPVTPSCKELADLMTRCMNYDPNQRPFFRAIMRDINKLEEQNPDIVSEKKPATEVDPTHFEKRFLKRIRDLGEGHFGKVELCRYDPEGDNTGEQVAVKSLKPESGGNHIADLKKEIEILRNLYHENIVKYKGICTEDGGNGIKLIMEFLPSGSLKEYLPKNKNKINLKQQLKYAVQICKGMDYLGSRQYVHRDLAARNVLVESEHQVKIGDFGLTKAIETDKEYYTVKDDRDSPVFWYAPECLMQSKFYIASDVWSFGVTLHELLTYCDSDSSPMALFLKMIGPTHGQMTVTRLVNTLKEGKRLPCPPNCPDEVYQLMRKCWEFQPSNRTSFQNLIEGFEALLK
Procedure: (§1) Recombinant human JAK1, JAK2, JAK3 and TYK2 […], and main instruments and reagents were provided by Eurofins, UK
(§2) JAK2, JAK3 and TYK2 dilutions: 20 mM 3-(N-morpholino)propanesulfonic acid (MOPS), 1 mM EDTA, 0.01% Brij-35.5% glycerol, 0.1% β-mercaptoethanol, 1 mg/mL BSA; JAK1 dilution: 20 mM TRIS, 0.2 mM EDTA, 0.1% β-mercaptoethanol, 0.01% Brij-35.5% glycerol. All compounds were prepared in 100% DMSO and brought to 50 fold the final assay concentration. The test compounds were serially 3-fold diluted to 9 concentrations from 10 μM to 0.001 μM with DMSO content in the assay reaction being 2%. Working stock solutions of the compounds were added to the assay wells as the first component of the reaction, and then the remaining components were added according to the assay protocol detailed below.
(§3) JAK1(h) was incubated with 20 mM Tris/HCl pH 7.5, 0.2 mM EDTA, 500 μM MGEEPLYWSFPAKKK, 10 mM magnesium acetate and [γ-^33P]-ATP (activity and concentration were determined as required). The reaction was started by adding the Mg/ATP mixture and terminated by adding 0.5% phosphoric acid after 40 min of incubation at room temperature. 10 μL of the reaction mixture was then added dropwise on a P30 filter pad and washed three times with 0.425% phosphoric acid and once with methanol within 4 minutes, dried and analyzed using a scintillation counter.

[4] = biological target: JAK3(h) (Homo sapiens (Human), UniProt P52333); assay: In vitro activity assay of JAK3 kinase (radiometric [γ-33P]-ATP); type: biochemical; details: recombinant human JAK3
JAK3(h), sequence (P52333 whole entry): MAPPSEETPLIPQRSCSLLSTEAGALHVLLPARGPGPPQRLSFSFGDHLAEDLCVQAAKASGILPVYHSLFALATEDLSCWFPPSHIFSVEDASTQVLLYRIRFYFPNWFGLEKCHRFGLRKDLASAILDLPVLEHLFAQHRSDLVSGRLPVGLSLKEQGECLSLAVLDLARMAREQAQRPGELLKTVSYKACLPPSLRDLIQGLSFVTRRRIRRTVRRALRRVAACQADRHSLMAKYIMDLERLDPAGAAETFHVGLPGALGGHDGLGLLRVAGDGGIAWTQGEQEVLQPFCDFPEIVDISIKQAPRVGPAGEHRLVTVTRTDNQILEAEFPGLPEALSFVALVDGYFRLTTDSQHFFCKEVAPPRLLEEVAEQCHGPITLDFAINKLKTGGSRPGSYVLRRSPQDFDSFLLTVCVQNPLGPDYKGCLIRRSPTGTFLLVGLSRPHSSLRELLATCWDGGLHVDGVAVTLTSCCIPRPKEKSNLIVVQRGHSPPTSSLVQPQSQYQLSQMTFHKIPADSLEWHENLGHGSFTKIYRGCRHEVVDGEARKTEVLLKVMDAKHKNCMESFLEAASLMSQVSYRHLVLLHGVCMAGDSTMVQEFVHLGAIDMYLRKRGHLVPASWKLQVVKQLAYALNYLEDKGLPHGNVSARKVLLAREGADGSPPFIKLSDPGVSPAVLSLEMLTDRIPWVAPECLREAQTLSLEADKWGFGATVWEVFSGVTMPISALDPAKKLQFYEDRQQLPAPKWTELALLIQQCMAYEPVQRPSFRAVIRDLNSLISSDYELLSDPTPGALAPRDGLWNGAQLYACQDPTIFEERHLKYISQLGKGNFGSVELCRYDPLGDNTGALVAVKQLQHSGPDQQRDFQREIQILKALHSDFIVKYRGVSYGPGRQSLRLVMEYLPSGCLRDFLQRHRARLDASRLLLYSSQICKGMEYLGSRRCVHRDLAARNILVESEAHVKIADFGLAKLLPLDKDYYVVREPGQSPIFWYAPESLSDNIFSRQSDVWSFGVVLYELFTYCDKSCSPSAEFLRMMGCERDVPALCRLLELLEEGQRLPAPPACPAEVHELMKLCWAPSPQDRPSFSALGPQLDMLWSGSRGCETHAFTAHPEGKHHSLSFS
Procedure: as §1, §2
as §3, with “JAK3(h)” for “JAK1(h)”, “8” for “20”, “MOPS” for “Tris/HCl”, “7.0,” for “7.5,”, “GGEEEEYFELVKKKK,” for “MGEEPLYWSFPAKKK,”

[5] = biological target: TYK2(h) (Homo sapiens (Human), UniProt P29597); assay: In vitro activity assay of TYK2 kinase (radiometric [γ-33P]-ATP); type: biochemical; details: recombinant human TYK2
TYK2(h), sequence (P29597 whole entry): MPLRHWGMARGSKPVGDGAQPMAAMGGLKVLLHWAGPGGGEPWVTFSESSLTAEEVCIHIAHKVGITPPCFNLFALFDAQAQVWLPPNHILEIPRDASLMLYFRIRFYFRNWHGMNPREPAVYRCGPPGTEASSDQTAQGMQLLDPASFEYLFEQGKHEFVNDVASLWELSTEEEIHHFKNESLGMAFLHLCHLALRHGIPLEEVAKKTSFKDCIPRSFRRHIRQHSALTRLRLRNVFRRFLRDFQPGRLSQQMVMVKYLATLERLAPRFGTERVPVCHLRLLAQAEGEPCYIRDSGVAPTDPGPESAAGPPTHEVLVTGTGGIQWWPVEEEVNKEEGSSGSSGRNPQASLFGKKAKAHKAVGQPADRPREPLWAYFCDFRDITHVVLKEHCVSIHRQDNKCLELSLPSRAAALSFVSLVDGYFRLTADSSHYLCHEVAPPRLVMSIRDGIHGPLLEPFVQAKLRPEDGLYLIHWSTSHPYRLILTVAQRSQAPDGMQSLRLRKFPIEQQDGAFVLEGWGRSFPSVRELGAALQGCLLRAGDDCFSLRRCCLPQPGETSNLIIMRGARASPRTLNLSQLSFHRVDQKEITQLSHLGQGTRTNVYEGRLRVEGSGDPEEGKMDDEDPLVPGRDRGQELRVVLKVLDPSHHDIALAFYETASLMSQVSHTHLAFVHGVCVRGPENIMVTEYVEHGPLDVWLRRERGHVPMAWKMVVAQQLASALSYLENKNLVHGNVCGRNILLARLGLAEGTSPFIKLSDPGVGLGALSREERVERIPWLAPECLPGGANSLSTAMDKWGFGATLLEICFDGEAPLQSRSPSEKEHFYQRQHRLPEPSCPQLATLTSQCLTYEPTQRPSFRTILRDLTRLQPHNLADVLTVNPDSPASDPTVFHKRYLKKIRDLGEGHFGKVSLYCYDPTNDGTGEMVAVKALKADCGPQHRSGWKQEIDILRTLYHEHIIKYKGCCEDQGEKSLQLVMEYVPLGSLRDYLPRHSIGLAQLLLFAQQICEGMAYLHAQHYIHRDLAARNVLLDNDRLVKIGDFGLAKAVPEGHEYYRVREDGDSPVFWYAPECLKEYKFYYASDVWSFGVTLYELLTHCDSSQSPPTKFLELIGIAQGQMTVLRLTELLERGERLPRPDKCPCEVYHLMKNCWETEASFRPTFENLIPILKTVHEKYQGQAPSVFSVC
Procedure: as §1, §2
as §3, with “TYK2(h)” for “JAK1(h)”, “8” for “20”, “MOPS” for “Tris/HCl”, “7.0,” for “7.5,”, “250” for “500”, “GGMEDIYFEFMGGKKK,” for “MGEEPLYWSFPAKKK,”

[6] = tested on: rat adjuvant-induced arthritis model; assay: Adjuvant-induced arthritis (AIA) in rats, in-vivo pharmacodynamic study; design: species or system Lewis rats; details: for Inhibition on area under the clinical score curve, AUC (%): oral, 2 times daily, female Lewis rats; for Mean clinical arthritis score: 10 mg/kg group
Procedure: The compounds disclosed herein were tested for their efficacy on arthritis using a rat adjuvant-induced arthritis model. Female, 160- and 180-gram Lewis rats were anesthetized with isoflurane and injected subcutaneously with 0.1 mL of Mycobacterium tuberculosis suspension in the left hind paw. The animals were grouped and administered with the compounds 13 days after modeling. The test compound 1-13 was dissolved in a mixed vehicle of [5% DMSO, 95% (12% SBE-β-CD), 0.5% MC]. The female Lewis rats were orally administered 2 times daily (8 animals in each group).

[7] = biological target: JAK2(h) (Homo sapiens (Human), UniProt O60674); assay: In vitro activity assay of JAK2 kinase (radiometric [γ-33P]-ATP); type: biochemical; details: recombinant human JAK2
JAK2(h), sequence (O60674 whole entry): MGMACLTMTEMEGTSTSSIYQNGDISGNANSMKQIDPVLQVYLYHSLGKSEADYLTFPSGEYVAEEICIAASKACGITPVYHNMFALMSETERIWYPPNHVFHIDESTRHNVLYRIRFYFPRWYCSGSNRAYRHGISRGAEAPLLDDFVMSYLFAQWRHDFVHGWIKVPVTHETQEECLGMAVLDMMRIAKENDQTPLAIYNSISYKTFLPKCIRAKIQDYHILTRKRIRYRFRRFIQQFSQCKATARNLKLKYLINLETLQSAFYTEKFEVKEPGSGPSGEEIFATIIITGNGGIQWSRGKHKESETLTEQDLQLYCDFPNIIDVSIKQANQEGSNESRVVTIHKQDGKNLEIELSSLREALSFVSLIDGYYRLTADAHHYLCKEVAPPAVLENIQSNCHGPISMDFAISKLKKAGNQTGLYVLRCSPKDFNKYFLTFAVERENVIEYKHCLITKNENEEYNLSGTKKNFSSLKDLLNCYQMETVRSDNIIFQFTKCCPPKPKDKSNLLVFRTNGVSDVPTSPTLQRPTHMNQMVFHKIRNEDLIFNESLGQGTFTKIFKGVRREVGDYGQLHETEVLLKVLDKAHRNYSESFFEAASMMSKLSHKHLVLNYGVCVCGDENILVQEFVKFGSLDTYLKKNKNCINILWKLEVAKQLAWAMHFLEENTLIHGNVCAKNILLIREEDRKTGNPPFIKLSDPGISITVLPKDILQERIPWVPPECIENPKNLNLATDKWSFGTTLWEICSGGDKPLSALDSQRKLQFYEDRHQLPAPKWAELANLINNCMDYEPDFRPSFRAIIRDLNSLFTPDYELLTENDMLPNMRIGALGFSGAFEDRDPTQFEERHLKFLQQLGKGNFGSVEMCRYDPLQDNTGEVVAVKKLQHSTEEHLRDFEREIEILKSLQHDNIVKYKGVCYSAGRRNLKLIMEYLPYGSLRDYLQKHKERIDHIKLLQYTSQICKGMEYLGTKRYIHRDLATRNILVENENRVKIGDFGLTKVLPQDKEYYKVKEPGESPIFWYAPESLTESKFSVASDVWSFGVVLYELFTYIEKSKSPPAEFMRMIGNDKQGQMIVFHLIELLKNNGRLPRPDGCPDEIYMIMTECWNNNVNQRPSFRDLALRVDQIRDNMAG
Procedure: as §1, §2
as §3, with “JAK2(h)” for “JAK1(h)”, “8” for “20”, “MOPS” for “Tris/HCl”, “7.0,” for “7.5,”, “100” for “500”, “[…],” for “MGEEPLYWSFPAKKK,”

[8] = i.v. 1 mg/kg and oral gavage 3 mg/kg groups, route not given

Row | Compound | Mean apparent permeability coefficient Mean Papp (10^−6 cm/s) A to B ([1]; Caco-2, pH 7.4) | AUC0-inf [2, 8] [µM·h] | Cmax [2, 8] [µM] | T1/2 [2, 8] [h] | Bioavailability (%) ([2]; oral gavage 3 mg/kg vs i.v. 1 mg/kg) | IC50 [3] [µM] | IC50 [4] [µM] | IC50 [5] [µM] | Effect on the weight loss trend of animals caused by disease attack ([6]; 3 mg/kg and 10 mg/kg, vs solvent control group, significant difference since day 20) | Therapeutic effect (inhibition rate versus vehicle control) ([6]; 3 mg/kg and 10 mg/kg, P<0.0001 versus vehicle control) | Inhibition on area under the clinical score curve, AUC (%) ([6]; 3 mg/kg) | Mean clinical arthritis score ([6]; day 13 (start of dosing)) [points] | Mean clinical arthritis score ([6]; day 27 (study endpoint)) [points] | Inhibition on area under the clinical score curve, AUC (%) ([6]; 10 mg/kg) | Increase in clinical arthritis score ([6]; dose-dependent, 3 and 10 mg/kg) | Increase in paw volume ([6]; dose-dependent, 3 and 10 mg/kg) | Efflux ratio ([1]; Caco-2) | Mean apparent permeability coefficient Mean Papp (10^−6 cm/s) B to A ([1]; Caco-2, pH 7.4) | IC50 [7] [µM]
1 | CC(C)(C)NCC(O)COc1cccc2c1CC(O)C(O)C2 (centres unmarked) [Nadolol, reference compound] | 0.16 10^−6 cm/s | – | – | – | – | – | – | – | – | – | – | – | – | – | – | – | – | – | –
2 | CN(c1ncnc2[nH]ccc12)[C@@H]1CCc2cc(C#N)nn2C1 [Compound 1-13] | 28.58 10^−6 cm/s | 12.765 | 6 | 1.89 | 88.4 | 0.001 | 0.118 | 0.015 | significant relieving effect | significant therapeutic effect | 49.6 | 6 | 1.4 | 60.5 | inhibited | inhibited | 1.09 | 31.18 10^−6 cm/s | 0.008
